8 compounds from ChEMBL document CHEMBL1151133, “Plant metabolites. Structure and in vitro antiviral activity of quinovic acid glycosides from Uncaria tomentosa and Guettarda platypoda” (J Nat Prod, 1989) can be followed below.

Structures are written as SMILES. ≈ marks a conversion by molar mass, not a printed value.

For series [1], the system named is Vesicular stomatitis Indiana virus. Briefly: Antiviral activity against Vesicular stomatitis Indiana virus infected in golden hamster CER cells assessed as reduction in virus plaque formation after 36 to 48 hrs. It is filed as functional.
A short description of series [2]: Cytotoxicity against golden hamster CER cells after 2 days by neutral red uptake assay. It is filed as cell-based, Mesocricetus auratus. To be noted: read-out: TC50.
Series [3] can be described thus: Cytotoxicity against human HeLa cells assessed as maximum non-toxic drug level after 2 days by neutral red uptake assay. It is filed as cell-based. To be noted: read-out: MNCC.
The test system of series [4] is rhinovirus A1B. Briefly: Antiviral activity against HRV1B infected in human HeLa cells assessed as reduction in virus-induced cytopathic effect at 30 ug/ml. More on the design: scale not given: the % may be the effect or the level left. It is filed as functional, Human rhinovirus 1B. On the technique in general: Protection from cytopathic effect is a common read-out in antiviral testing.

In series [5] the test system is rhinovirus A1B. Put plainly: Antiviral activity against HRV1B infected in human HeLa cells assessed as reduction in virus-induced cytopathic effect at 20 ug/ml. It is filed as functional, Human rhinovirus 1B. More on the design: scale not given: the % may be the effect or the level left.

As for `C[C@H]1[C@H](C)CC[C@]2(C(=O)O[C@@H]3O[C@H](CO)[C@@H](O)[C@H](O)[C@H]3O)CC[C@]3(C(=O)O)C(=CC[C@@H]4[C@@]5(C)CC[C@H](O[C@@H]6O[C@H](C)[C@H](O)[C@H](O[C@@H]7O[C@H](CO)[C@@H](O)[C@H](O)[C@H]7O)[C@H]6O)C(C)(C)[C@@H]5CC[C@]43C)[C@H]12`, in series [1], the MIC50 is 42 µM (≈ 40.2 µg/mL). Also, the CC50 at 48 h in series [2] was 80 µg/mL (≈ 83.6 µM).

With `C[C@H]1[C@H](C)CC[C@]2(C(=O)O)CC[C@]3(C(=O)O[C@@H]4O[C@H](CO)[C@@H](O)[C@H](O)[C@H]4O)C(=CC[C@@H]4[C@@]5(C)CC[C@H](O[C@@H]6O[C@H](CO)[C@@H](O)[C@H](O)[C@H]6O)C(C)(C)[C@@H]5CC[C@]43C)[C@H]12`, in series [1], the MIC50 was determined as 87 µM (≈ 70.6 µg/mL). In series [2], the CC50 at 48 h was found to be 150 µg/mL (≈ 185 µM).

As to `C[C@H]1[C@H](C)CC[C@]2(C(=O)O)CC[C@]3(C(=O)O[C@@H]4O[C@H](CO)[C@@H](O)[C@H](O)[C@H]4O)C(=CC[C@@H]4[C@@]5(C)CC[C@H](O[C@@H]6O[C@H](C)[C@H](O)[C@H](O[C@@H]7O[C@H](CO)[C@@H](O)[C@H](O)[C@H]7O)[C@H]6O)C(C)(C)[C@@H]5CC[C@]43C)[C@H]12`, the MIC50 in series [1] is 63 µM (≈ 60.3 µg/mL). Moreover, the CC50 at 48 h in series [2] was 100 µg/mL (≈ 104 µM).

On to `C[C@H]1[C@H](C)CC[C@]2(C(=O)O[C@@H]3O[C@H](CO)[C@@H](O)[C@H](O)[C@H]3O)CC[C@]3(C(=O)O)C(=CC[C@@H]4[C@@]5(C)CC[C@H](O[C@@H]6O[C@H](CO)[C@@H](O)[C@H](O)[C@H]6O)C(C)(C)[C@@H]5CC[C@]43C)[C@H]12`, for which the MIC50 in series [1] turned out to be 40 µM (≈ 32.4 µg/mL). Moreover, the CC50 at 48 h in series [2] turned out to be 150 µg/mL (≈ 185 µM). Also, the MNTC at 48 h in series [3] was found to be 100 µg/mL. Besides, the Activity in the series on rhinovirus A1B [4] and in the series on rhinovirus A1B [5] was 50% in each case.

Consider `C[C@H]1[C@H](C)CC[C@]2(C(=O)O[C@@H]3O[C@H](CO)[C@@H](O)[C@H](O)[C@H]3O)CC[C@]3(C(=O)O)C(=CC[C@@H]4[C@@]5(C)CC[C@H](O[C@@H]6O[C@H](C)[C@@H](O)[C@H](O)[C@H]6O)C(C)(C)[C@@H]5CC[C@]43C)[C@H]12`, for which the MIC50 in series [1] amounted to 28 µM (≈ 22.3 µg/mL). Moreover, the CC50 at 48 h in series [2] is 80 µg/mL (≈ 101 µM).

In the case of `C[C@H]1[C@H](C)CC[C@]2(C(=O)O)CC[C@]3(C(=O)O)C(=CC[C@@H]4[C@@]5(C)CC[C@H](O[C@@H]6O[C@H](CO)[C@@H](O)[C@H](O)[C@H]6O)C(C)(C)[C@@H]5CC[C@]43C)[C@H]12`, the MIC50 in series [1] turned out to be 51 µM (≈ 33.1 µg/mL). Besides, in series [2], the CC50 at 48 h was determined as 150 µg/mL (≈ 231 µM).

For the compound `C[C@H]1[C@H](C)CC[C@]2(C(=O)O)CC[C@]3(C(=O)O)C(=CC[C@@H]4[C@@]5(C)CC[C@H](O[C@@H]6O[C@H](C)[C@H](O)[C@H](O[C@@H]7O[C@H](CO)[C@@H](O)[C@H](O)[C@H]7O)[C@H]6O)C(C)(C)[C@@H]5CC[C@]43C)[C@H]12`, the MIC50 in series [1] was 25 µM (≈ 19.9 µg/mL). Further, the CC50 at 48 h in series [2] is 100 µg/mL (≈ 126 µM).

As to `C[C@H]1[C@H](C)CC[C@]2(C(=O)O[C@@H]3O[C@H](CO)[C@@H](O)[C@H](O)[C@H]3O)CC[C@]3(C(=O)O)C(=CC[C@@H]4[C@@]5(C)CC[C@H](O[C@@H]6O[C@H](C)[C@H](O)[C@H](O)[C@H]6O)C(C)(C)[C@@H]5CC[C@]43C)[C@H]12`, the MIC50 in series [1] stood at 40 µM (≈ 31.8 µg/mL). Besides, the CC50 at 48 h in series [2] came to 80 µg/mL (≈ 101 µM).
